Reference: patent publication US9125913B2, “Bcl-2-selective apoptosis-inducing agents for the treatment of cancer and immune diseases” (AbbVie Inc., priority 2008, dated 2015)

Columns and labels:
GST-Bcl-2 = experiment: TR-FRET binding assay, Bcl-2; details: TR-FRET Ki values
How it was run: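 Ki values come from Wang's competitive-binding equation applied to TR-FRET signal (excitation 340/35 nm; emission 520/525 nm F-Bak peptide, 495/510 nm Tb antibody). Protein, probe and antibody incubated with compound 3 h at room temperature; dilution series began at 50 μM as 2× stock in 10% DMSO.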

FL5.12/Bcl-2 cells = experiment: FL5.12/Bcl-2 cell viability assay; assay type: cell-based, murine; details: ratio of canine platelet EC50 to FL5.12/Bcl-2 EC50
How it was run: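 Viability measured by CellTitre Glo after FL5.12/Bcl-2 murine cells, starved of IL-3 for 48 hrs, were treated with compounds for another 24 hrs. Killing reflects inhibition of Bcl-2 sequestration of Bim and Puma.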

CC1(C)CCC(c2ccc(Cl)cc2)=C(CN2CCN(c3ccc(C(=O)NS(=O)(=O)c4ccc(NCCCN5CCOCC5)c([N+](=O)[O-])c4)c(Oc4cccc5[nH]ccc45)c3)CC2)C1 [Example 54, 4-(4-{[2-(4-chlorophenyl)-5,5-dimethylcyclohex-1-en-1-yl]methyl}piperazin-1-yl)-2-(1H-indol-4-yloxy)-N-({4-[(3-morpholin-4-ylpropyl)amino]-3-nitrophenyl}sulfonyl)benzamide]
Binding selectivity ratio (Bcl-XL Ki/Bcl-2 Ki) (GST-Bcl-2): 108.3
Selectivity Ratio (Platelet EC50/FL5.12/Bcl-2 EC50) (FL5.12/Bcl-2 cells): >785

CN(C)CCOc1cccc(-c2ccc(Cl)cc2)c1CN1CCN(c2ccc(C(=O)NS(=O)(=O)c3ccc(NCCCN4CCCC4)c([N+](=O)[O-])c3)c(Oc3ccc4[nH]ccc4c3)c2)CC1 [Example 134, 4-[4-({4′-chloro-3-[2-(dimethylamino)ethoxy]-1,1′-biphenyl-2-yl}methyl)piperazin-1-yl]-2-(1H-indol-5-yloxy)-N-({3-nitro-4-[(3-pyrrolidin-1-ylpropyl)amino]phenyl}sulfonyl)benzamide]
Binding selectivity ratio (Bcl-XL Ki/Bcl-2 Ki) (GST-Bcl-2): 347.1
Selectivity Ratio (Platelet EC50/FL5.12/Bcl-2 EC50) (FL5.12/Bcl-2 cells): 98

CN1CCC(CNc2ccc(S(=O)(=O)NC(=O)c3ccc(N4CCN(CC5=C(c6ccc(Cl)cc6)CC(C)(C)CC5)CC4)cc3Oc3ccc4[nH]ccc4c3)cc2[N+](=O)[O-])(N(C)C)CC1 [Example 109, 4-(4-{[2-(4-chlorophenyl)-4,4-dimethylcyclohex-1-en-1-yl]methyl}piperazin-1-yl)-N-{[4-({[4-(dimethylamino)-1-methylpiperidin-4-yl]methyl}amino)-3-nitrophenyl]sulfonyl}-2-(1H-indol-5-yloxy)benzamide]
Binding selectivity ratio (Bcl-XL Ki/Bcl-2 Ki) (GST-Bcl-2): >4099.4
Selectivity Ratio (Platelet EC50/FL5.12/Bcl-2 EC50) (FL5.12/Bcl-2 cells): >1404

CC1(C)CCC(CN2CCN(c3ccc(C(=O)NS(=O)(=O)c4ccc(NCCCN5CCCC5)c([N+](=O)[O-])c4)c(Oc4cccc5[nH]ccc45)c3)CC2)=C(c2cccc(C(F)(F)F)c2)C1 [Example 71, 4-[4-({4,4-dimethyl-2-[3-(trifluoromethyl)phenyl]cyclohex-1-en-1-yl}methyl)piperazin-1-yl]-2-(1H-indol-4-yloxy)-N-({3-nitro-4-[(3-pyrrolidin-1-ylpropyl)amino]phenyl}sulfonyl)benzamide]
Binding selectivity ratio (Bcl-XL Ki/Bcl-2 Ki) (GST-Bcl-2): >105.9
Selectivity Ratio (Platelet EC50/FL5.12/Bcl-2 EC50) (FL5.12/Bcl-2 cells): >107

CC1(C)CCC(CN2CCN(c3ccc(C(=O)NS(=O)(=O)c4ccc(NCCCN5CCCC5)c([N+](=O)[O-])c4)c(Oc4cccc5[nH]ccc45)c3)CC2)=C(c2ccc(Cl)cc2)C1 [Example 102, 4-(4-{[2-(4-chlorophenyl)-4,4-dimethylcyclohex-1-en-1-yl]methyl}piperazin-1-yl)-2-(1H-indol-4-yloxy)-N-({3-nitro-4-[(3-pyrrolidin-1-ylpropyl)amino]phenyl}sulfonyl)benzamide]
Binding selectivity ratio (Bcl-XL Ki/Bcl-2 Ki) (GST-Bcl-2): 64.1
Selectivity Ratio (Platelet EC50/FL5.12/Bcl-2 EC50) (FL5.12/Bcl-2 cells): 996

O=C(NS(=O)(=O)c1ccc(NCC2CCOCC2)c([N+](=O)[O-])c1)c1ccc(N2CCN(Cc3cc(CN4CCCC4)ccc3-c3ccc(Cl)cc3)CC2)cc1Oc1cccc2[nH]ccc12 [Example 24, 4-(4-{[4′-chloro-4-(pyrrolidin-1-ylmethyl)-1,1′-biphenyl-2-yl]methyl}piperazin-1-yl)-2-(1H-indol-4-yloxy)-N-({3-nitro-4-[(tetrahydro-2H-pyran-4-ylmethyl)amino]phenyl}sulfonyl)benzamide]
Binding selectivity ratio (Bcl-XL Ki/Bcl-2 Ki) (GST-Bcl-2): >3402.1
Selectivity Ratio (Platelet EC50/FL5.12/Bcl-2 EC50) (FL5.12/Bcl-2 cells): >906

CN1CCC(Nc2ccc(S(=O)(=O)NC(=O)c3ccc(N4CCN(CC5=C(c6ccc(Cl)cc6)CC(C)(C)CC5)CC4)cc3Oc3ccc4[nH]ccc4c3)cc2S(=O)(=O)C(F)(F)Cl)CC1 [Example 74, N-({3-{[chloro(difluoro)methyl]sulfonyl}-4-[(1-methylpiperidin-4-yl)amino]phenyl}sulfonyl)-4-(4-{[2-(4-chlorophenyl)-4,4-dimethylcyclohex-1-en-1-yl]methyl}piperazin-1-yl)-2-(1H-indol-5-yloxy)benzamide]
Binding selectivity ratio (Bcl-XL Ki/Bcl-2 Ki) (GST-Bcl-2): 1262.5
Selectivity Ratio (Platelet EC50/FL5.12/Bcl-2 EC50) (FL5.12/Bcl-2 cells): 1989
